Measurements taken from patent US5521184A, “Pyrimidine derivatives and processes for the preparation thereof” (Ciba-Geigy Corporation, priority 1992, dated 1996).

What was measured:
[1] = test system: human T24 bladder carcinoma; experiment: tumour-inhibiting activity in nude mice with transplanted human T24 bladder carcinoma; assay type: in vivo, female Balb/c nude mice; details: perorally or intraperitoneally once daily for 15 days
Description: The tumour-inhibiting activity is determined using female Balb/c nude mice in which human T24 bladder carcinoma has been transplanted. On day 0, a c. 25 mg piece of solid tumour is transplanted subcutaneously under peroral "forene" narcosis on the left flank and the small incision wound is closed with a suture clip. On day 6 after the tumour transplantation, the mice are randomised in groups of 6 animals and treatment is commenced. The treatment is carded out for 15 days by administering a compound of formula I, e.g. N-[3-(1,1,2,2-Tetrafluoroethoxy)phenyl]-4-(4-pyridyl)-2-pyrimidine-amine, in dimethyl sulfoxide/Tween 80/sodium chloride solution in the different doses perorally or intraperitoneally once daily. The tumours are measured twice weekly with a sliding caliper and the tumour volume determined.

[2] = test system: p34^cdc2 /cyclin B^cdc13 kinase; experiment: p34cdc2/cyclin Bcdc13 kinase assay with histone H1 as substrate; assay type: biochemical, starfish
Description: Starfish oocytes are induced to enter M phase with 10 μM 1-methyladenine, frozen in liquid nitrogen and stored at -80° C. When required the oocytes are homogenized and centrifuged as described by D. Arion et al., Cell 55, 371-378 (1988) and V. Rialet und L. Meijer, Anticancer Res. 11, 1581-1590 (1991). For purification of p34^cdc2 /cyclin B^cdc13 kinase, the supernatant of oocytes is added to p9^CKShs -sepharose beads prepared from recombinant human p9^CKShsas described by L. Azzi et al., Eur. J. Biochem. 203, 353-360 (1992). After 30 minutes at 4° C. under constant rotation, the beads are extensively washed and active p34^cdc2 /cyclin B^cdc13 kinase is eluted with free p9^CKShs (3 mg/ml). The eluted kinase is assayed using histone H1 as a substrate as described by L. Meijer et al., EMBO J. 8, 2275-2282 (1989) und EMBO J. 10, 1545-1554 (1991). The reaction mixture contains 10 μl p34^cdc2 /cyclin B^cdc13 kinase, 5 μl histone H1, type III-S (5 mg/ml) and 10 μl buffer C. The reaction is started by addition of 5 μl [γ-^32 P]ATP (75 μM, 8800 cpm/pmole) and incubated for 10 minutes at 30° C. The assay is terminated by transferring 25 μl on pieces of Whatman P81 phosphocellulose paper. After 20 seconds the papers are washed 6 times with each 10 ml of 1% phosphoric acid for 5 minutes, dried and counted in a scintillation counter.

[3] = target: EGF-receptor-specific protein tyrosine kinase (EGF-R-PTK) (Homo sapiens, UniProt P00533); experiment: inhibition of the EGF-receptor-specific protein tyrosine kinase (EGF-R-PTK); assay type: biochemical
Excerpt: J. Biochem. 207, 265-275 (1992).

EGF-receptor-specific protein tyrosine kinase (EGF-R-PTK), sequence (P00533 669-1210 limits assumed): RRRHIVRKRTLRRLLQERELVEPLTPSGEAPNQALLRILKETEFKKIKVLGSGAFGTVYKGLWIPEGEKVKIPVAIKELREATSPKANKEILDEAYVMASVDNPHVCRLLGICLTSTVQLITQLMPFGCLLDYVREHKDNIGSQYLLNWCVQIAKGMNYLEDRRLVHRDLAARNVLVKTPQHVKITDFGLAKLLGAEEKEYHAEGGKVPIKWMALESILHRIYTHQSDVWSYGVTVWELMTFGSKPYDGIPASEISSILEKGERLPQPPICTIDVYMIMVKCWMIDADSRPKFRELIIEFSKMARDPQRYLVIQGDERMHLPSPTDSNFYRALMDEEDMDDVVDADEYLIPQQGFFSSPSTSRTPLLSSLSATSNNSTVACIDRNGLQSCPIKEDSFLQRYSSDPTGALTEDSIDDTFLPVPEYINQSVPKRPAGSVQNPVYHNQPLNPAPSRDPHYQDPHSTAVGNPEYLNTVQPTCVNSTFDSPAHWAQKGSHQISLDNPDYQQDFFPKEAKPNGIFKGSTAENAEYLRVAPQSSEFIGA

Compound	average tumour volume compared with the untreated controls [1]	inhibition of p34cdc2/cyclin Bcdc13 kinase [2]	IC50 ([2]; histone H1 substrate) [nM]	inhibition of the tyrosine kinase activity of the receptor for EGF [3]
FC(F)C(F)(F)Oc1cccc(Nc2nccc(-c3ccncc3)n2)c1 [Example 32, N-[3-(1,1,2,2-tetrafluoroethoxy)phenyl]-4-(4-pyridyl)-2-pyrimidine-amine]	marked reduction in the average tumour volume	inhibit	80	
FC(F)C(F)(F)Oc1cccc(Nc2nccc(-c3c[nH]c4ccccc34)n2)c1 [Example 33, N-[3-(1,1,2,2-tetrafluoroethoxy)phenyl]-4-(3-indolyl)-2-pyrimidine-amine]				inhibit the tyrosine kinase activity
